# Columns and labels:
# [1] = system: A673 spheroids; test: Spheroid assay in 3D culture (methylcellulose); assay type: cell-based, human; details: A673 spheroids in methylcellulose, scored 14 days after plating
# Method: A673 cells were seeded on flat bottom non attachment 24 well plates (1000 cells/well) in triplicate using 1.2 % methylcellulose (Dow Chemical, Waterloo, NY) mixed with 20% FCS and specified concentrations of BO-1055 or 4HC as shown in Figure 1D. Samples were incubated at 37°C / 5 % CO2 and colonies were scored 14 days after plating.
# [2] = system: patient derived Ewing sarcoma xenografts; test: Cyclophosphamide resistant patient-derived Ewing sarcoma xenografts; assay type: in vivo, NSG mice; details: cyclophosphamide MTD 70mg/kg i.p. q2d for 3 doses
# Method: Patient derived xenografts were established from Ewing sarcoma patients who progressed through first line chemotherapy that included cyclophosphamide, doxorubicin, vincristine, ifosfamide and etoposide (PS3). When these Ewing sarcoma xenografts (n = 10) reached 100mm^3, they were randomized to control and treatment groups.
# All mouse experiments were performed at the animal core facility at MSKCC under an approved protocol following the IACUC guidelines. Five to seven-week-old NOD/SCID IL2R gamma null (NSG) mice (bred at the Mouse Genetics Core Facility, MSKCC) were used for in vivo experiments. All mouse experiments were done following the IACUC guidelines at the animal facility at MSKCC. Tumors were induced using 10^6 A673 cells or A204 cells in 0.2ml 1:1 cellular medium, Matrigel matrix (BD Bioscience, Bedford, MA) and injected subcutaneously (s.q) into the right flank. The tumors were measured every 3 d with a caliper, and the diameters were recorded. Tumor volume was calculated by the formula a^2 b/2 where ‘a’ is the smallest and ‘b’ is the largest diameter. When the tumors reached 100mm^3, we randomized mice into control and drug treatment groups. Treatment groups received BO-1055 by tail vein injection at 10mg/kg, 20mg/kg and 30mg/kg q2d x 5 doses for mice bearing A673 xenografts. BO-1055 was given at 30mg/kg q2d x 5 doses for mice bearing A204 xenografts. […]
# [3] = system: CCRF-CEM/Taxol cells; set-up: method as in PMID 21106377; details: CCRF-CEM/Taxol ref 6; cited from earlier work
structure (smiles),measurement,setting,value
"O=P1(N(CCCl)CCCl)NC(OO)CCO1 (stereo not drawn) [4-HC, 4-hydroperoxy cyclophosphamide, reference compound]",concentration giving complete inhibition of spheroids,[1],5 µM
"O=P1(N(CCCl)CCCl)NCCCO1 (stereo not drawn) [cyclophosphamide, reference compound]",tumor growth,[2],not inhibited
"CC(=O)O[C@H]1C(=O)[C@@]2(C)[C@H]([C@H](OC(=O)c3ccccc3)[C@]3(O)C[C@H](OC(=O)[C@H](O)[C@@H](NC(=O)c4ccccc4)c4ccccc4)C(C)=C1C3(C)C)[C@]1(OC(C)=O)CO[C@@H]1C[C@@H]2O [taxol, reference compound]",resistance of CCRF-CEM/Taxol cells,[3],330 fold

# From article PMC5190008, “BO-1055, a novel DNA cross-linking agent with remarkable low myelotoxicity shows potent activity in sarcoma models” (Oncotarget, 2016)
